{"source": "patent US8242124B2", "about": "“Diketopiperidine derivatives as HIV attachment inhibitors” (priority 2008, dated 2012)"}
{"test_system": "HIV-1 single-round infectious reporter virus", "assay": "Single-round infectious HIV-1 reporter virus (luciferase) infection assay in HeLa CD4 cells", "settings": "Human immunodeficiency virus 1, HeLa, 72 h, read-out: HIV_SC10PT (EC50, nM)", "units": {"EC50": "nM"}, "description": "2. Compound was added in a 2 μl dimethylsulfoxide solution, so that the final assay concentration would be ≦10 μM.\n3. 100 μl of single-round infectious reporter virus in Dulbecco's Modified Eagle Medium was then added to the plated cells and compound at an approximate multiplicity of infection (MOI) of 0.01, resulting in a final volume of 200 μl per well.\n4. Virally-infected cells were incubated at 37 degrees Celsius, in a CO2 incubator, and harvested 72 h after infection.\n5. Viral infection was monitored by measuring luciferase expression from viral DNA in the infected cells using a luciferase reporter gene assay kit, as described by the manufacturer (Roche Molecular Biochemicals, Indianapolis, Ind.). Infected cell supernatants were removed and 50 μl of lysis buffer was added per well. After 15 minutes, 50 μl of freshly-reconstituted luciferase assay reagent was added per well. Luciferase activity was then quantified by measuring luminescence using a Wallac MICROBETA® scintillation counter.\n7. An EC50 provides a method for comparing the antiviral potency of the compounds of this disclosure. The effective concentration for fifty percent inhibition (EC50) was calculated with the Microsoft Excel Xlfit curve fitting software."}
{"smiles": "COc1cnc(-c2cc(C(=O)NCCO)[nH]n2)c2[nH]cc(C(=O)C(=O)N3CCc4c(cccc4-c4ccccn4)C3)c12", "note": "[Compound 9, N-(2-hydroxyethyl)-3-(4-methoxy-3-(2-oxo-2-(5-(pyridin-2-yl)-3,4-dihydroisoquinolin-2(1H)-yl)acetyl)-1H-pyrrolo[2,3-c]pyridin-7-yl)-1H-pyrazole-5-carboxamide]", "EC50": 0.17}
{"smiles": "COc1cnc(-n2cnc(C)n2)c2[nH]cc(C(=O)C(=O)N3CCc4c(cccc4-c4ccccc4)C3)c12", "note": "[Compound 1, 1-(4-methoxy-7-(3-methyl-1H-1,2,4-triazol-1-yl)-1H-pyrrolo[2,3-c]pyridin-3-yl)-2-(5-phenyl-3,4-dihydroisoquinolin-2(1H)-yl)ethane-1,2-dione]", "EC50": 0.02}
{"smiles": "COc1cnc(Cl)c2[nH]cc(C(=O)C(=O)N3CCc4c(cccc4-c4ccccn4)C3)c12", "note": "[Compound 30, 1-(7-chloro-4-methoxy-1H-pyrrolo[2,3-c]pyridin-3-yl)-2-(5-(pyridin-2-yl)-3,4-dihydroisoquinolin-2(1H)-yl)ethane-1,2-dione]", "EC50": 171}
{"test_system": "HIV-1 single-round infectious reporter virus", "assay": "Single-round infectious HIV-1 reporter virus (luciferase) infection assay in HeLa CD4 cells", "settings": "Human immunodeficiency virus 1, HeLa, 72 h, read-out: HIV_SC10PT (EC50, nM), group symbol", "units": {"EC50": "nM"}}
{"smiles": "COc1cnc(-n2cnc(C)n2)c2[nH]cc(C(=O)C(=O)N3CCc4c(cc(C#N)c(=O)n4-c4ccccc4)C3)c12", "note": "[Compound 25, 6-(2-(4-methoxy-7-(3-methyl-1H-1,2,4-triazol-1-yl)-1H-pyrrolo[2,3-c]pyridin-3-yl)-2-oxoacetyl)-2-oxo-1-phenyl-1,2,5,6,7,8-hexahydro-1,6-naphthyridine-3-carbonitrile]", "EC50": "< 100"}
{"smiles": "CNC(=O)c1cc(-c2ncc(OC)c3c(C(=O)C(=O)N4CCc5c(cccc5-c5ccccn5)C4)c[nH]c23)n[nH]1", "note": "[Compound 4, 3-(4-methoxy-3-(2-oxo-2-(5-(pyridin-2-yl)-3,4-dihydroisoquinolin-2(1H)-yl)acetyl)-1H-pyrrolo[2,3-c]pyridin-7-yl)-N-methyl-1H-pyrazole-5-carboxamide]", "EC50": "< 100"}
{"smiles": "COc1cnc(-n2cncn2)c2[nH]cc(C(=O)C(=O)N3CCc4c(cccc4-c4ccccn4)C3)c12", "note": "[Compound 11, 1-(4-methoxy-7-(1H-1,2,4-triazol-1-yl)-1H-pyrrolo[2,3-c]pyridin-3-yl)-2-(5-(pyridin-2-yl)-3,4-dihydroisoquinolin-2(1H)-yl)ethane-1,2-dione]", "EC50": "< 100"}
{"smiles": "COc1cnc(-c2cc(CO)[nH]n2)c2[nH]cc(C(=O)C(=O)N3CCc4c(cccc4-c4ccccn4)C3)c12", "note": "[Compound 29, 1-(7-(5-(hydroxymethyl)-1H-pyrazol-3-yl)-4-methoxy-1H-pyrrolo[2,3-c]pyridin-3-yl)-2-(5-(pyridin-2-yl)-3,4-dihydroisoquinolin-2(1H)-yl)ethane-1,2-dione]", "EC50": "< 100"}
{"smiles": "COc1cnc(-n2ccnn2)c2[nH]cc(C(=O)C(=O)N3CCc4c(ncnc4-c4ccccn4)C3)c12", "note": "[Compound 19, 1-(4-methoxy-7-(1H-1,2,3-triazol-1-yl)-1H-pyrrolo[2,3-c]pyridin-3-yl)-2-(4-(pyridin-2-yl)-5,6-dihydropyrido[3,4-d]pyrimidin-7(8H)-yl)ethane-1,2-dione]", "EC50": "< 100"}
{"smiles": "COc1cnc(-n2cnc(C)n2)c2[nH]cc(C(=O)C(=O)N3CCc4c(ccnc4-c4ccccn4)C3)c12", "note": "[Compound 26, 1-(4-methoxy-7-(3-methyl-1H-1,2,4-triazol-1-yl)-1H-pyrrolo[2,3-c]pyridin-3-yl)-2-(5-(pyridin-2-yl)-3,4-dihydro-2,6-naphthyridin-2(1H)-yl)ethane-1,2-dione]", "EC50": "< 100"}
{"smiles": "COc1cnc(-n2cnc(C(F)(F)F)n2)c2[nH]cc(C(=O)C(=O)N3CCc4c(cccc4-c4ccccn4)C3)c12", "note": "[Compound 12, 1-(4-methoxy-7-(3-(trifluoromethyl)-1H-1,2,4-triazol-1-yl)-1H-pyrrolo[2,3-c]pyridin-3-yl)-2-(5-(pyridin-2-yl)-3,4-dihydroisoquinolin-2(1H)-yl)ethane-1,2-dione]", "EC50": "< 100"}
{"smiles": "COc1cnc(-c2cc(CO)[nH]n2)c2[nH]cc(C(=O)C(=O)N3CCc4c(ncnc4-c4ccccn4)C3)c12", "note": "[Compound 21, 1-(7-(5-(hydroxymethyl)-1H-pyrazol-3-yl)-4-methoxy-1H-pyrrolo[2,3-c]pyridin-3-yl)-2-(4-(pyridin-2-yl)-5,6-dihydropyrido[3,4-d]pyrimidin-7(8H)-yl)ethane-1,2-dione]", "EC50": "< 100"}
{"smiles": "COc1cnc(-c2cc(C(=O)O)[nH]n2)c2[nH]cc(C(=O)C(=O)N3CCc4c(cccc4-c4ccccn4)C3)c12", "note": "[Compound 7, 3-(4-methoxy-3-(2-oxo-2-(5-(pyridin-2-yl)-3,4-dihydroisoquinolin-2(1H)-yl)acetyl)-1H-pyrrolo[2,3-c]pyridin-7-yl)-1H-pyrazole-5-carboxylic acid]", "EC50": "< 100"}
{"smiles": "COCc1ncn(-c2ncc(OC)c3c(C(=O)C(=O)N4CCc5c(cccc5-c5ccccn5)C4)c[nH]c23)n1", "note": "[Compound 14, 1-(4-methoxy-7-(3-(methoxymethyl)-1H-1,2,4-triazol-1-yl)-1H-pyrrolo[2,3-c]pyridin-3-yl)-2-(5-(pyridin-2-yl)-3,4-dihydroisoquinolin-2(1H)-yl)ethane-1,2-dione]", "EC50": "< 100"}
{"smiles": "COc1cnc(-c2cc(C(C)(C)O)[nH]n2)c2[nH]cc(C(=O)C(=O)N3CCc4c(ncnc4-c4ccccn4)C3)c12", "note": "[Compound 22, 1-(7-(5-(2-hydroxypropan-2-yl)-1H-pyrazol-3-yl)-4-methoxy-1H-pyrrolo[2,3-c]pyridin-3-yl)-2-(4-(pyridin-2-yl)-5,6-dihydropyrido[3,4-d]pyrimidin-7(8H)-yl)ethane-1,2-dione]", "EC50": "< 100"}
{"smiles": "CNC(=O)c1ncc(OC)c2c(C(=O)C(=O)N3CCc4c(cccc4-c4ccccn4)C3)c[nH]c12", "note": "[Compound 5, 4-methoxy-N-methyl-3-(2-oxo-2-(5-(pyridin-2-yl)-3,4-dihydroisoquinolin-2(1H)-yl)acetyl)-1H-pyrrolo[2,3-c]pyridine-7-carboxamide]", "EC50": "< 100"}
{"smiles": "COc1cnc(-n2cnc(C)n2)c2[nH]cc(C(=O)C(=O)N3CCc4c(cccc4-c4ccccn4)C3)c12", "note": "[Compound 2, 1-(4-methoxy-7-(3-methyl-1H-1,2,4-triazol-1-yl)-1H-pyrrolo[2,3-c]pyridin-3-yl)-2-(5-(pyridin-2-yl)-3,4-dihydroisoquinolin-2(1H)-yl)ethane-1,2-dione]", "EC50": "< 100"}
{"smiles": "COc1cnc(-n2cnc(CO)n2)c2[nH]cc(C(=O)C(=O)N3CCc4c(ncnc4-c4ccccn4)C3)c12", "note": "[Compound 23, 1-(7-(3-(hydroxymethyl)-1H-1,2,4-triazol-1-yl)-4-methoxy-1H-pyrrolo[2,3-c]pyridin-3-yl)-2-(4-(pyridin-2-yl)-5,6-dihydropyrido[3,4-d]pyrimidin-7(8H)-yl)ethane-1,2-dione]", "EC50": "< 100"}
{"smiles": "COCc1ncnn1-c1ncc(OC)c2c(C(=O)C(=O)N3CCc4c(cccc4-c4ccccn4)C3)c[nH]c12", "note": "[Compound 13, 1-(4-methoxy-7-(5-(methoxymethyl)-1H-1,2,4-triazol-1-yl)-1H-pyrrolo[2,3-c]pyridin-3-yl)-2-(5-(pyridin-2-yl)-3,4-dihydroisoquinolin-2(1H)-yl)ethane-1,2-dione]", "EC50": "< 100"}
{"smiles": "COc1cnc(-n2cnc(C)n2)c2[nH]cc(C(=O)C(=O)N3CCc4c(ccnc4-c4ccccc4)C3)c12", "note": "[Compound 27, 1-(4-methoxy-7-(3-methyl-1H-1,2,4-triazol-1-yl)-1H-pyrrolo[2,3-c]pyridin-3-yl)-2-(5-phenyl-3,4-dihydro-2,6-naphthyridin-2(1H)-yl)ethane-1,2-dione]", "EC50": "< 100"}
{"smiles": "COc1cnc(-n2cnc(C)n2)c2[nH]cc(C(=O)C(=O)N3CCc4c(-c5ccccn5)cccc4C3O)c12", "note": "(stereo not shown) [Compound 28, 1-(1-hydroxy-5-(pyridin-2-yl)-3,4-dihydroisoquinolin-2(1H)-yl)-2-(4-methoxy-7-(3-methyl-1H-1,2,4-triazol-1-yl)-1H-pyrrolo[2,3-c]pyridin-3-yl)ethane-1,2-dione]", "EC50": "< 100"}
{"smiles": "COc1cnc(-n2ccc(C(F)(F)F)n2)c2[nH]cc(C(=O)C(=O)N3CCc4c(cccc4-c4ccccn4)C3)c12", "note": "[Compound 10, 1-(4-methoxy-7-(3-(trifluoromethyl)-1H-pyrazol-1-yl)-1H-pyrrolo[2,3-c]pyridin-3-yl)-2-(5-(pyridin-2-yl)-3,4-dihydroisoquinolin-2(1H)-yl)ethane-1,2-dione]", "EC50": "< 100"}
{"smiles": "COc1cnc(-n2cnc(C(C)O)n2)c2[nH]cc(C(=O)C(=O)N3CCc4c(ncnc4-c4ccccn4)C3)c12", "note": "(stereo not shown) [Compound 24, 1-(7-(3-(1-hydroxyethyl)-1H-1,2,4-triazol-1-yl)-4-methoxy-1H-pyrrolo[2,3-c]pyridin-3-yl)-2-(4-(pyridin-2-yl)-5,6-dihydropyrido[3,4-d]pyrimidin-7(8H)-yl)ethane-1,2-dione]", "EC50": "< 100"}
{"smiles": "COc1cnc(C(=O)NCCO)c2[nH]cc(C(=O)C(=O)N3CCc4c(cccc4-c4ccccn4)C3)c12", "note": "[Compound 6, N-(2-hydroxyethyl)-4-methoxy-3-(2-oxo-2-(5-(pyridin-2-yl)-3,4-dihydroisoquinolin-2(1H)-yl)acetyl)-1H-pyrrolo[2,3-c]pyridine-7-carboxamide]", "EC50": "< 100"}
{"smiles": "COc1cnc(-c2cc(C(=O)N(C)C)[nH]n2)c2[nH]cc(C(=O)C(=O)N3CCc4c(cccc4-c4ccccn4)C3)c12", "note": "[Compound 8, 3-(4-methoxy-3-(2-oxo-2-(5-(pyridin-2-yl)-3,4-dihydroisoquinolin-2(1H)-yl)acetyl)-1H-pyrrolo[2,3-c]pyridin-7-yl)-N,N-dimethyl-1H-pyrazole-5-carboxamide]", "EC50": "< 100"}
{"smiles": "COc1cnc(-n2cnc(C(C)(F)F)n2)c2[nH]cc(C(=O)C(=O)N3CCc4c(cccc4-c4ccccn4)C3)c12", "note": "[Compound 17, 1-(7-(3-(1,1-difluoroethyl)-1H-1,2,4-triazol-1-yl)-4-methoxy-1H-pyrrolo[2,3-c]pyridin-3-yl)-2-(5-(pyridin-2-yl)-3,4-dihydroisoquinolin-2(1H)-yl)ethane-1,2-dione]", "EC50": "< 100"}
